Like-named read-outs stand apart in the source and are kept apart here. Positions of bridges follow the written chain, without caps; N, C: chain ends. Residues, ends and D or L forms follow the SMILES beside them. *: point of attachment. DOTA = O=C(O)CN1CCN(CC(=O)O)CCN(CC(=O)*)CCN(CC(=O)O)CC1; NODAGA = O=C(O)CN1CCN(CC(=O)O)CCN(C(CCC(=O)*)C(=O)O)CC1; Ahx = NCCCCCC(=O)O
Assays:
[1] = system: HEK-ACE2/HEK-ACE-xenografted mice; test: SPECT/CT imaging and quantification of retained activity in HEK-ACE2/HEK-ACE xenografted mice; format: in vivo, mouse; details: for Activity retained in the kidneys relative to the 1 h p.i.-timepoint: SPECT/CT quantification, non-decay-corrected
Method: (§1) All applicable international, national, and/or institutional guidelines for the care and use of animals were followed. In particular, all animal experiments were carried out according to the guidelines of the Swiss Regulations for Animal Welfare. Preclinical studies have been ethically approved by the Cantonal Committee of Animal Experimentation and permitted by the responsible cantonal authorities (License N° 75743). Five-week-old female CD1/nude mice and female immunocompetent FVB mice were obtained from Charles River Laboratories (Sulzfeld, Germany) and fed with standard rodent chow ad libitum. CD1/nude were subcutaneously inoculated with HEK-ACE2 cells (6–8 × 10^6 cells in 100 µL PBS) on the right shoulder and approximately one week later with HEK-ACE (4 × 10^6 cells in 100 µL PBS) on the left shoulder. Imaging and biodistribution studies were performed 2–4 weeks later when the xenografts reached a size of 100–300 mm^3.
SPECT/CT imaging was performed using a four-head, multiplexing, multipinhole small-animal SPECT camera (NanoSPECT/CT™, Mediso Medical Imaging Systems, Budapest, Hungary). Each head was outfitted with a tungsten-based aperture of nine 1.4 mm-diameter pinholes and a thickness of 10 mm. CT scans of 7.5 min duration were followed by SPECT scans of ~ 50 min performed 1 h, 3 h and 24 h after injection of the respective radiopeptide (10 MBq, 0.5 nmol, 100 μL), diluted in NaCl 0.9% containing 0.05% BSA. During the scan, mice were anesthetized with a mixture of isoflurane and oxygen. The images were acquired using Nucline software (version 1.02, Mediso Ltd., Budapest, Hungary). The real-time CT reconstruction used a cone-beam-filtered backprojection. The reconstruction of SPECT data was performed with the HiSPECT software (version 1.4.3049, Scivis GmbH, Göttingen, Germany) using γ-energies of 93.20 keV (± 10%), 184.60 keV (± 10%) and 300.00 keV (± 10%) for gallium-67. All images were prepared using the VivoQuant post-processing software (version 3.0, inviCRO Imaging Services and Software, Boston, US). A Gauss post-reconstruction filter (full width at half maximum, 1 mm) was applied, and the scale of activity for gallium-67 was set as indicated on the SPECT/CT images. In order to estimate the wash-out of the DX600-based radiopeptides from the HEK-ACE2 xenografts and kidneys over time, the absolute amount of activity was determined in these tissues using the VivoQuant quantification tool. The accumulated activity (non-decay-corrected value in MBq) in the xenografts and kidneys, respectively, obtained at the 1 h p.i. timepoint was set as 100%. The percentage of activity retained in these tissues was determined at 3 h and 24 h p.i. based on the absolute activity determined at these timepoints.

[2] = Stability of the radiopeptide formulated in saline (HPLC); format: physicochemical; details: for Intact radiopeptide: 0.9% NaCl, room temperature, 20 MBq/nmol, 10 MBq/100 µL
Method: The purified [^67Ga]GaCl3 in HCl (~ 0.1 M) was added to a sodium acetate solution (0.5 M, pH 8) to obtain a buffered system of pH ~ 4. After adding the respective peptide (DOTA-DX600, NODAGA-DX600, HBED-CC-DX600 or DOTA-BPP9a) in a quantity to obtain the desired molar activity (5–20 MBq/nmol), the reaction mixture was incubated at 95 °C for 15 min. Quality control was performed using a Merck Hitachi LaChrom HPLC system (Additional file 1). The radiopeptides were used directly for in vitro and in vivo studies without further purification steps. The stability of the radiopeptides (20 MBq/nmol) formulated in 0.9% NaCl (10 MBq/100 µL) was assessed at room temperature (Additional file 1). The highest molar activity used in these studies was 20 MBq/nmol which means that one of 73–74 molecules was labeled with gallium-67. Nevertheless, the labeling efficiency of the DX600-based peptides was assessed using the highest possible molar activity that would still allow for the preparation of the DX600-based radiopeptide at a radiochemical purity of > 95% (Additional file 1).
Methods: The integrity of the radiopeptides (20 MBq/nmol), formulated in 0.9% NaCl (10 MBq/100 µL) and incubated at room temperature, was determined by HPLC using the system described above. The HPLC chromatograms were analyzed by determination of the peak area of the radiolabeled peptide, the released gallium-67, as well as degradation products of unknown structure. The quantity of the intact product was expressed as percentage of the sum of integrated peak areas of the entire chromatogram and set in relation to the original value determined at t = 0, which was set as 100%.

[3] = Biodistribution in HEK-ACE2/HEK-ACE xenografted mice; format: in vivo, mouse; details: female, CD1/nude, mouse, iv, 0.5 nmol, total radioactivity, 3 h after i.v. injection, decay-corrected, n = 3
Method: as §1
(§2) Biodistribution studies in xenograft-bearing mice were performed 2–4 weeks after cell inoculation. Mice were intravenously injected with [^67Ga]Ga-DOTA-DX600, [^67Ga]Ga-NODAGA-DX600, [^67Ga]Ga-HBED-CC-DX600 or [^67Ga]Ga-DOTA-BPP9a (3 MBq, 0.5 nmol, 100 µL) diluted in NaCl 0.9% containing 0.05% BSA. The mice were sacrificed 3 h after administration of the radiopeptides. Selected tissues and organs were collected, weighed and counted using a γ-counter. The results were listed as a percentage of the injected activity per gram of tissue mass (% IA/g), using counts of a defined volume of the original injection solution measured simultaneously, resulting in decay-corrected values. Statistical analysis was performed by applying a one‐way ANOVA test with a Tukey’s multiple comparisons post‐test (GraphPad Prism software, version 8.3.1).

[4] = system: HEK-ACE2/HEK-ACE-xenografted mice; test: as above; format: in vivo, mouse; details: for HEK-ACE2 xenograft-to-kidney ratio: 3 h after injection
Method: as §1, §2

[5] = HEK-ACE xenograft, read-out: Biodistribution: ACE xenograft (HEK-ACE)
[6] = blood, read-out: Biodistribution: blood
[7] = bone, read-out: Biodistribution: bone
[8] = heart, read-out: Biodistribution: heart
[9] = intestines, read-out: Biodistribution: intestines
[10] = kidneys, read-out: Biodistribution: kidneys (renal retention)
[11] = liver, read-out: Biodistribution: liver
[12] = lung, read-out: Biodistribution: lung
[13] = muscle, read-out: Biodistribution: muscle
[14] = salivary glands, read-out: Biodistribution: salivary glands
[15] = spleen, read-out: Biodistribution: spleen
[16] = stomach, read-out: Biodistribution: stomach
[17] = 3 h after i.v. injection, decay-corrected, n = 3
[18] = HEK-ACE2 xenograft, read-out: Biodistribution: ACE2 xenograft (HEK-ACE2)

Row | SMILES | tissue uptake at 3 h [3, 5] | tissue uptake at 3 h [3, 6] | tissue uptake at 3 h [3, 7] | tissue uptake at 3 h [3, 8] | tissue uptake at 3 h [3, 9] | tissue uptake at 3 h [3, 10] | tissue uptake at 3 h [3, 11] | tissue uptake at 3 h [3, 12] | tissue uptake at 3 h [3, 13] | tissue uptake at 3 h [3, 14] | tissue uptake at 3 h [3, 15] | tissue uptake at 3 h [3, 16] | Activity retained in the kidneys relative to the 1 h p.i.-timepoint ([1]; 3 h p.i.) | Activity retained in the kidneys relative to the 1 h p.i.-timepoint ([1]; 24 h p.i.) | tissue uptake at 3 h [3, 18] | HEK-ACE2 xenograft-to-kidney ratio [4] | also measured
1 | CC[C@H](C)[C@H](NC(=O)[C@H](CCC(N)=O)NC(=O)[C@@H]1CCCN1C(=O)[C@H](CCCNC(=N)N)NC(=O)[C@@H]1CCCN1C(=O)[C@H](Cc1c[nH]c2ccccc12)NC(=O)[C@H](CCC(=O)O)NC(=O)CCCCCNC(=O)CCCCCNC(=O)CN1CCN(CC(=O)O)CCN(CC(=O)O)CCN(CC(=O)O)CC1)C(=O)N1CCC[C@H]1C(=O)N1CCC[C@H]1C(=O)O [[^67Ga]Ga-DOTA-BPP9a, metal not drawn] ({DOTA-Ahx-Ahx}-EWPRPQIPP-OH) | 3.17 ± 0.29 %ID/g | 0.05 ± 0.01 %ID/g | 0.04 ± 0.01 %ID/g | 0.03 %ID/g | 0.06 ± 0.02 %ID/g | 3.22 ± 0.8 %ID/g | 0.09 ± 0.01 %ID/g | 0.13 ± 0.03 %ID/g | 0.02 ± 0.01 %ID/g | 0.04 ± 0.01 %ID/g | 0.08 ± 0.04 %ID/g | 0.06 ± 0.05 %ID/g | – | – | – | – | Uptake in HEK-ACE2 xenografts on SPECT/CT images ([1]; 1 h and 3 h after injection): no uptake; Uptake in HEK-ACE xenografts on SPECT/CT images ([1]; 1 h and 3 h after injection): accumulation; Degradation products (partial radiolysis) ([2]; saline, 24 h incubation): ~ 11%; Biodistribution: ACE2 xenograft (HEK-ACE2) [4, 17]: < 0.5 % IA/g; Biodistribution: ACE2 xenograft (HEK-ACE2) ([4]; 3 h after i.v. injection, decay-corrected, n = 3, listed as [^67Ga]Ga-DOTA- BPP9a): 0.19 ± 0.19 % IA/g
2 | CC(=O)N[C@@H](CCCCNC(=O)CN1CCN(CC(=O)O)CCN(CC(=O)O)CCN(CC(=O)O)CC1)C(=O)NCC(=O)N[C@@H](CC(=O)O)C(=O)N[C@@H](Cc1ccc(O)cc1)C(=O)N[C@@H](CO)C(=O)N[C@@H](Cc1c[nH]cn1)C(=O)N[C@H]1CSSC[C@@H](C(=O)N[C@H](C(=O)N[C@@H](Cc2ccc(O)cc2)C(=O)N2CCC[C@H]2C(=O)N[C@@H](CC(=O)O)C(=O)N2CCC[C@H]2C(=O)N[C@@H](CCC(=O)O)C(=O)NCC(=O)NCC(=O)NCC(N)=O)[C@@H](C)O)NC(=O)[C@H](CCCCN)NC(=O)[C@H](Cc2c[nH]c3ccccc23)NC(=O)[C@H](Cc2c[nH]c3ccccc23)NC(=O)[C@@H]2CCCN2C(=O)[C@H](Cc2ccc(O)cc2)NC(=O)[C@H](Cc2ccc(O)cc2)NC(=O)[C@H](CCCNC(=N)N)NC(=O)[C@H](CC(C)C)NC(=O)[C@@H]2CCCN2C(=O)[C@H](CO)NC1=O [[^67Ga]Ga-DOTA-DX600, metal not drawn] (Ac-K(DOTA)GDYSHCSPLRYYPWWKCTYPDPEGGG-NH2; disulfide 7-18) | < 0.5 %ID/g | 0.06 ± 0.01 %ID/g | 0.06 ± 0.01 %ID/g | 0.04 ± 0.01 %ID/g | 0.09 ± 0.04 %ID/g | ~24 %ID/g | 0.22 ± 0.01 %ID/g | 0.14 ± 0.06 %ID/g | 0.02 %ID/g | 0.05 ± 0.01 %ID/g | 0.09 ± 0.01 %ID/g | 0.04 ± 0.01 %ID/g | ~ 85% | 35–45% | 10.7 ± 0.4 %ID/g | 0.45 ± 0.02 | Biodistribution: ACE xenograft (HEK-ACE) [4, 17]: 0.32 ± 0.18 % IA/g
3 | CC(=O)N[C@@H](CCCCNC(=O)CCC(C(=O)O)N1CCN(CC(=O)O)CCN(CC(=O)O)CC1)C(=O)NCC(=O)N[C@@H](CC(=O)O)C(=O)N[C@@H](Cc1ccc(O)cc1)C(=O)N[C@@H](CO)C(=O)N[C@@H](Cc1c[nH]cn1)C(=O)N[C@H]1CSSC[C@@H](C(=O)N[C@H](C(=O)N[C@@H](Cc2ccc(O)cc2)C(=O)N2CCC[C@H]2C(=O)N[C@@H](CC(=O)O)C(=O)N2CCC[C@H]2C(=O)N[C@@H](CCC(=O)O)C(=O)NCC(=O)NCC(=O)NCC(N)=O)[C@@H](C)O)NC(=O)[C@H](CCCCN)NC(=O)[C@H](Cc2c[nH]c3ccccc23)NC(=O)[C@H](Cc2c[nH]c3ccccc23)NC(=O)[C@@H]2CCCN2C(=O)[C@H](Cc2ccc(O)cc2)NC(=O)[C@H](Cc2ccc(O)cc2)NC(=O)[C@H](CCCNC(=N)N)NC(=O)[C@H](CC(C)C)NC(=O)[C@@H]2CCCN2C(=O)[C@H](CO)NC1=O (stereo partly shown) [[^67Ga]Ga-NODAGA-DX600, metal not drawn] (Ac-K(NODAGA)GDYSHCSPLRYYPWWKCTYPDPEGGG-NH2; disulfide 7-18) | – | 0.02 ± 0.01 %ID/g | 0.04 ± 0.01 %ID/g | 0.04 ± 0.01 %ID/g | 0.13 ± 0.07 %ID/g | ~24 %ID/g | 0.25 ± 0.04 %ID/g | 0.08 ± 0.01 %ID/g | 0.02 ± 0.01 %ID/g | 0.05 ± 0.01 %ID/g | 0.08 ± 0.01 %ID/g | 0.06 ± 0.03 %ID/g | ~ 85% | 35–45% | 15.5 ± 2.2 %ID/g | 0.67 ± 0.16 | Intact radiopeptide ([2]; 1 h): ≥99%; Intact radiopeptide ([2]; 3 h): ≥99%; Intact radiopeptide ([2]; 24 h): ≥99%

— publication PMC10113987, “A tool for nuclear imaging of the SARS-CoV-2 entry receptor: molecular model and preclinical development of ACE2-selective radiopeptides” (EJNMMI Research, 2023)
